Measurements taken from patent US20110230430A1, “SAPONIN EXTRACT FROM SAPONARIA SPP. AND USES THEREOF” (NATIONAL RESEARCH COUNCIL OF CANADA, priority 2008, published 2011).

Assays:
Format in all cases: cell-based, human
[1] = tested on: PC-3 (prostate cancer) cells; assay: Hoechst 33342 staining of PC-3 cells; details: 7 μM PC1448, 24 hours
Excerpt: (§1) Apoptosis can also be measured by Hoechst 33342 Staining. Cells undergoing apoptosis show several characteristic morphological changes. These changes include cell shrinkage and rounding, and the formation of cytoplasmic blebs on the cell surface. Nuclear material condenses along the edge of the nucleus followed by complete condensation and nuclear fragmentation (Hacker, G., 2000). Apoptotic cells eventually break up into membrane bound vesicles, which are known as apoptotic bodies. Hoechst 33342 is a fluorescent DNA-binding dye that allows visualization of chromatin distribution within a cell. Apoptotic nuclei have highly condensed chromatin, often in crescent shapes around the periphery of the nucleus.
(§2) A further indication of apoptotic activity, in addition to the assays described above, can be derived from observations of changes in cell architecture evident after induction of apoptosis. Hoechst 33342 is a fluorescent DNA-binding dye that allows visualization of chromatin distribution within a cell.
(§3) Cells undergoing apoptosis show several characteristic morphological changes. These changes include cell shrinkage and rounding, and the formation of cytoplasmic blebs on the cell surface. Nuclear material condenses along the edge of the nucleus followed by complete condensation and nuclear fragmentation (Hacker, G., 2000). […]

CRL-2522 cells = assay: APO LOGIX Carboxyfluorescein Caspase 9 Detection Kit in CRL-2522 cells
Excerpt: (§4) In a still further apoptotic assay, apoptosis can be measured by the APO LOGIX™ Carboxyfluorescein Caspase 9 Detection Kit. The APO LOGIX™ Carboxyfluorescein Caspase 9 Detection Kit uses a cell permeable carboxyfluorescein labeled caspase inhibitor, which binds covalently to active caspases 9. Caspase 9 is involved in initiating apoptosis through the mitochondrial pathway (Budihardjo I., et al. 1999). Cells that contain bound inhibitor are detected by an increase in fluorescence when samples are analyzed by flow cytometry.
CRL-2522 cells, acquired from ATCC, (American Type Culture Collection) are normal fibroblast cells that originated from human foreskin. CRL-2522 cells were maintained in RPMI 1640 medium (Gibco) supplemented with 10% fetal bovine serum (Cansera), 100 U/mL penicillin, 100 μg/mL streptomycin and 0.25 μg/mL amphotericin B. Cultures were maintained in medium at 37° C. with 5% CO2 and 100% relative humidity.
CRL-2522 cells were treated with PC1448 and assayed for apoptosis as described above for PC-3 cells.

[2] = tested on: MDA-MB-231 (breast cancer) cells; assay: Hoechst 33342 staining of MDA-MB-231 cells; details: 7 μM PC1448, 24 hours
Excerpt: as §1, §2, §3

MDA-MB-231 cells = assay: APO LOGIX Carboxyfluorescein Caspase 9 Detection Kit in MDA-MB-231 cells
Excerpt: as §4
The MDA-MB-231 cell line (ATCC #HTB-26) was derived from the pleural effusion of a patient with a breast adenocarcinoma (Cailleau et al., 1974). The cells were maintained in RPMI 1640 (Gibco) supplemented with 10% fetal bovine serum (Camera), 100 U/mL penicillin, 100 μg/mL streptomycin and 0.25 μg/mL amphotericin B. Cultures were maintained in medium at 37° C. with 5% CO2 and 100% relative humidity.
MDA-MB-231 cells were treated with PC1448 and assayed for apoptosis as previously described for PC-3 cells.

## Segetoside H [PC1448]
[1]
  Nuclear morphology after Hoechst 33342 staining (in words, FIG. 4): nuclear changes characteristic of apoptotic cells
CRL-2522 cells; 14 μM PC1448, 10 to 48 hr
  Change in Caspase 9 positive cells (in words): No increase in Caspase 9 positive cells
CRL-2522 cells; 14 μM PC1448, 10 hr
  Caspase 9 positive cells: 15.9%
CRL-2522 cells; 14 μM PC1448, 24 hr
  Caspase 9 positive cells: 10.6%
CRL-2522 cells; 14 μM PC1448, 48 hr
  Caspase 9 positive cells: 9.5%
[2]
  Nuclear morphology after Hoechst 33342 staining (in words, FIG. 4): nuclear changes characteristic of apoptotic cells
MDA-MB-231 cells; 14 μM PC1448, 10 hr
  Caspase 9 positive cells: 23.2%
MDA-MB-231 cells; 14 μM PC1448, 15 hr
  Caspase 9 positive cells: 29.8%
MDA-MB-231 cells; 14 μM PC1448, 20 hr
  Caspase 9 positive cells: 30.5%
MDA-MB-231 cells; 14 μM PC1448, 40 hours
  Increase in cells with caspase 9 activity vs untreated (maximum effect): 2.5 fold
MDA-MB-231 cells; 14 μM PC1448, 40 hr
  Caspase 9 positive cells: 39.4%
